PMC3499368, “Evolution of Minimal Specificity and Promiscuity in Steroid Hormone Receptors” (PLoS Genetics, 2012)
Like-named read-outs stand apart in the source and are kept apart here.

Tests used:
Format in all cases: cell-based
[1] = tested on: AncSR2-LBD; experiment: luciferase reporter gene assay, Gal4-DBD fusion of AncSR2-LBD in CHO-K1 cells, activation; conditions: for EC50: AncSR2, representative dose activation curves (Fig. S4) and Table S5 sections c-i; for Ratio H1/H2 of EC50, preference for 3-hydroxy vs. 3-keto group / Ratio H2/H1 of EC50, preference for 3-hydroxy vs. 3-keto group: AncSR2, Table S5 section e, pairs H1/H2: 18/17, 9/6, 15/13; for Ratio H1/H2 of EC50, preference for 17-acetyl vs. 17-hydroxy group / Ratio H2/H1 of EC50, preference for 17-acetyl vs. 17-hydroxy group: AncSR2, Table S5 section d, pairs H1/H2: 13/6, 17/8, 15/9, 16/10, 19/23
From the text: To experimentally test these hypotheses, we synthesized cDNAs for the AncSR1 and AncSR2 LBD protein sequences, expressed them as Gal4-DBD fusion constructs, and characterized their sensitivity to hormones using luciferase reporter gene assays. […] It was unresponsive to a broad array of androgens, progestagens, and corticosteroids, as well as cholesterol (Figure 2A, Figure S3).
For AncSR2, we identified all plausible alternate reconstructions (those with posterior probability >0.20 excluding biochemically similar K/R, D/E, S/T, and I/L differences) and introduced each alternate state individually into the AncSR2 background using the Quikchange Mutagenesis kit (Stratagene), verified clones by sequencing, and repeated the activation assays with each version of AncSR2 (Figure S6). The ML AncSR2 sequence reconstructed on the ML tree had high baseline activation in the absence of ligand; this phenotype is almost certainly an artifact, because constitutive baseline activity is not present in any of AncSR2's extant descendants; it is well-established that some amino acid replacements can cause nuclear receptors to become constitutive by marginally stabilizing the active conformation in the absence of hormone. […] The “constitutive” Leu79 state is weakly supported on the ML tree (PP = 0.59), and has no support (PP = 0.00) on the phylogeny that is most parsimonious in terms of gene duplications and losses; in contrast, the “non-constitutive” state Met79 has PP = 0.41 on the ML tree and PP = 1.00 on the rearranged gene duplication/loss tree (Figure S12, Table S8). The AncSR2 sequence used for all experiments reported in the text therefore contains state Met79. The other alternate reconstructions were then reintroduced into this AncSR2 sequence: none qualitatively changed the receptor's sensitivity to the various classes of steroid hormones, except for A171V, which conferred constitutive activity (Figure S6).

[2] = tested on: AncSR1_Alt4; experiment: luciferase reporter assay, alternative reconstruction AncSR1_Alt4; conditions: for activation (in words): Alt4, fold activation at 10^-6 M, Fig. S5C
From the text: (§1) To determine the robustness of functional inferences to statistical uncertainty in the reconstruction of AncSR1 and AncSR2, we used two approaches. AncSR1 had too many ambiguously reconstructed sites to examine each such residue individually, so we computationally sampled from the posterior probability distribution of reconstructed amino acid states to generate a cloud of possible ancestral sequences, each harboring a large number of alternate states. Specifically, we generated 1,000,000 possible ancestral sequences by sampling from the posterior probability distribution of states at each site. […] We synthesized these five radically alternative ancestral reconstructions de novo and repeated the functional assays.
(§2) A) Distribution of posterior probabilities of 1 million protein sequences assembled by sampling amino acid states at each site from the posterior probability distribution for AncSR1 LBD. The ML reconstruction (AncSR1-ML) and the five alternative sequences with the highest posterior probability (Alt1-Alt5) in the 1 million samples are […]
(§3) The column height and error bars indicate the mean and SEM of three independent experiments, respectively. […]

[3] = tested on: AncSR1_Alt3; experiment: luciferase reporter assay, alternative reconstruction AncSR1_Alt3; conditions: for activation (in words): Alt3, fold activation at 10^-6 M, Fig. S5C
From the text: as §1, §2, §3

[4] = tested on: AncSR1-LBD; experiment: luciferase reporter gene assay, Gal4-DBD fusion of AncSR1-LBD in CHO-K1 cells, activation; conditions: for activation (in words): fold activation at 10^-6 M, Fig. S5C
From the text: To experimentally test these hypotheses, we synthesized cDNAs for the AncSR1 and AncSR2 LBD protein sequences, expressed them as Gal4-DBD fusion constructs, and characterized their sensitivity to hormones using luciferase reporter gene assays.

[5] = tested on: AncSR1_Alt5; experiment: luciferase reporter assay, alternative reconstruction AncSR1_Alt5; conditions: for activation (in words): Alt5, fold activation at 10^-6 M, Fig. S5C
From the text: as §1, §2, §3

[6] = tested on: AncSR1_Alt2; experiment: luciferase reporter assay, alternative reconstruction AncSR1_Alt2; conditions: for activation (in words): Alt2, fold activation at 10^-6 M, Fig. S5C
From the text: as §1, §2, §3

[7] = tested on: AncSR1_Alt1; experiment: luciferase reporter assay, alternative reconstruction AncSR1_Alt1; conditions: for activation (in words): Alt1, fold activation at 10^-6 M, Fig. S5C
From the text: as §1, §2, §3

[8] = AncSR2, Table S5 section h, pairs H1/H2: 3/4, 6/7, listed as given under Hormone 1
[9] = listed as given under Hormone 1
[10] = AncSR1, representative dose activation curves (Fig. S3) and Table S5 section b
[11] = AncSR1, Table S5 section b, pairs H1/H2: 18/19, 22/20, 8/23, listed as given under Hormone 1
[12] = AncSR2, Table S5 section i, pairs H1/H2: 8/6, 17/13, 18/15, listed as given under Hormone 1

Compound: C[C@]12C[C@H](O)[C@H]3[C@@H](CCC4=CC(=O)CC[C@@]43C)[C@@H]1CC[C@@H]2C(=O)CO [corticosterone]
- Ratio H1/H2 of EC50, preference for 17a-H group vs. -OH group [1, 8]: 0.03
- Ratio H2/H1 of EC50, preference for 17a-H group vs. -OH group [1, 8]: 31.61
- EC50 ([1]; read-out: EC50): 0.31 nM

Compound: CC(=O)[C@@]1(O)CC[C@H]2[C@@H]3CCC4=CC(=O)CC[C@]4(C)[C@H]3CC[C@@]21C [17α-hydroxyprogesterone]
- EC50 ([1]; read-out: EC50): 19 nM

Compound: CC(=O)C1CCC2C3CCC4=CC(O)CCC4(C)C3CCC12C (stereo not shown) [4-pregnenolone]
- Ratio H1/H2 of EC50, preference for 3-hydroxy vs. 3-keto group [1, 9]: 0.40
- Ratio H2/H1 of EC50, preference for 3-hydroxy vs. 3-keto group [1, 9]: 2.50
- EC50 [1]: 2.2 nM

Compound: C[C@]12CC[C@H]3[C@@H](CCC4=CC(=O)CC[C@@]43C)[C@@H]1CC[C@@H]2O [testosterone]
- activation (in words) [2]: none are activated
- activation (in words) [3]: none are activated
- activation (in words) ([4]; AncSR1-ML): none are activated
- activation (in words) [5]: none are activated
- Ratio H1/H2 of EC50, preference for 17-acetyl vs. 17-hydroxy group [1, 9]: 21.09
- Ratio H2/H1 of EC50, preference for 17-acetyl vs. 17-hydroxy group [1, 9]: 0.05
- EC50 [1]: 116 nM
- activation (in words) [6]: none are activated
- activation (in words) [7]: none are activated

Compound: CC(=O)[C@H]1CC[C@H]2[C@@H]3CCC4=CC(=O)CC[C@]4(C)[C@H]3CC[C@]12C [progesterone]
- activation (in words) [2]: none are activated
- activation (in words) [3]: none are activated
- activation (in words) ([4]; AncSR1-ML): none are activated
- activation (in words) [5]: none are activated
- EC50 ([1]; read-out: EC50): 5.5 nM
- activation (in words) [6]: none are activated
- activation (in words) [7]: none are activated

Compound: C[C@]12CC[C@@H]3c4ccc(O)cc4CC[C@H]3[C@@H]1C[C@@H](O)[C@@H]2O [estriol]
- EC50 ([2]; Alt4, Fig. S5B): 2010 nM
- EC50 ([3]; Alt3, Fig. S5B): 149 nM
- EC50 [4, 10]: 970 nM
- EC50 ([4]; AncSR1-ML, Fig. S5B): 974 nM
- EC50 ([5]; Alt5, Fig. S5B): 390 nM
- EC50 ([6]; Alt2, Fig. S5B): 2220 nM
- EC50 ([7]; Alt1, Fig. S5B): 322 nM

Compound: C[C@@H](O)[C@H]1CC[C@H]2[C@@H]3CCC4=CC(=O)CC[C@]4(C)[C@H]3CC[C@]12C [20β hydroxyprogesterone]
- EC50 ([1]; read-out: EC50): 10 nM

Compound: CC(=O)C1CCC2C3CC=C4CC(O)CCC4(C)C3CCC12C (stereo not shown) [5-pregnenolone]
- EC50 ([1]; read-out: EC50): 3.8 nM

Compound: C[C@]12CC[C@H]3[C@@H](CC=C4C[C@@H](O)CC[C@@]43C)[C@@H]1CC[C@@H]2O [5-androstenediol]
- Ratio H1/H2 of EC50, preference for 17-acetyl vs. 17-hydroxy group [1, 9]: 21.84
- Ratio H2/H1 of EC50, preference for 17-acetyl vs. 17-hydroxy group [1, 9]: 0.05
- EC50 [1]: 83 nM

Compound: CC12CCC3C4CCC(O)C=C4CCC3C1CCC2O (stereo not shown) [bolandiol]
- Ratio H1/H2 of EC50, preference for aromatized A-ring [4, 11]: 36.02
- Ratio H2/H1 of EC50, preference for aromatized A-ring [4, 11]: 0.03
- EC50 [4, 10]: 1760 nM
- Ratio H1/H2 of EC50, preference for 3-hydroxy vs. 3-keto group [1, 9]: 0.29
- Ratio H2/H1 of EC50, preference for 3-hydroxy vs. 3-keto group [1, 9]: 3.45
- Ratio H1/H2 of EC50, preference for 19-H vs. 19-methyl group [1, 12]: 0.08
- Ratio H2/H1 of EC50, preference for 19-H vs. 19-methyl group [1, 12]: 13.10
- EC50 [1]: 20 nM
